From publication doi:10.1101/2025.01.15.632643v1 (biorxiv, 2025)
Like-named read-outs stand apart in the source and are kept apart here.

Assays:
[1] = target: T1, His-ZZ-DYRK1A kinase domain (DYRK1A protein) (Homo sapiens, UniProt Q13627); assay: biochemical; conditions: read-out: koff
[2] = target: T2, His-ZZ-DYRK1B kinase domain (DYRK1B protein) (Homo sapiens, UniProt Q9Y463); conditions: read-out: DYRK1B –; inhibitor
[3] = target: T2, His-ZZ-DYRK1B kinase domain (DYRK1B protein); assay: biochemical; conditions: read-out: kon
[4] = target: T2, His-ZZ-DYRK1B kinase domain (DYRK1B protein); assay: biochemical; conditions: read-out: koff
[5] = target: T1, His-ZZ-DYRK1A kinase domain (DYRK1A protein); assay: luminescent kinase assay after transient heating; assay type: biochemical
[6] = target: T1, His-ZZ-DYRK1A kinase domain (DYRK1A protein); assay: biochemical; conditions: read-out: kon
[7] = target: T2, His-ZZ-DYRK1B kinase domain (DYRK1B protein); conditions: read-out: DYRK1B Transient heating; inhibitor
[8] = target: T2, His-ZZ-DYRK1B kinase domain (DYRK1B protein); assay: luminescent kinase assay after transient heating; assay type: biochemical; conditions: […] °C […] sec heating with compound, then ATP […], DYRKtide […], pH […]
[9] = target: T1, His-ZZ-DYRK1A kinase domain (DYRK1A protein); conditions: read-out: DYRK1A –; without transient heating; inhibitor
[10] = target: T1, His-ZZ-DYRK1A kinase domain (DYRK1A protein); conditions: read-out: DYRK1A Transient heating; with transient heating (20 sec); inhibitor
[11] = target: T2, His-ZZ-DYRK1B kinase domain (DYRK1B protein); conditions: read-out: DYRK1B Transient heating; with transient heating (20 sec); inhibitor
[12] = target: T2, His-ZZ-DYRK1B kinase domain (DYRK1B protein); conditions: read-out: DYRK1B –; without transient heating; inhibitor

COc1ccc(/C=C2\SC(=S)NC2=O)cc1C#C[Si](C)(c1ccccc1)c1ccccc1 [compound 2, dp-FINDY]
koff [1]: 2.2e-07 s⁻¹ | IC50 [2]: > 32 µM | kon [3]: 200 M⁻¹ s⁻¹ | koff [4]: 0.00012 s⁻¹ | IC50 [5]: 2.6 µM | kon [6]: 0.28 M⁻¹ s⁻¹ | IC50 [7]: 2.5 µM

COc1ccc(/C=C2\NC(=S)NC2=O)cc1C#C[Si](C)(c1ccccc1)c1ccccc1 [compound 4, RD1408]
IC50 [7]: 14 µM

CCOc1cc(/C=C2\SC(=S)NC2=O)ccc1O [compound 5, RD0392]
IC50 [2]: 3.6 µM | IC50 [7]: 3.5 µM

C#Cc1cc(/C=C2\SC(=S)NC2=O)ccc1OC [compound 11, RD0448]
IC50 [8]: 16 µM | IC50 [2]: 52 µM | IC50 [5]: 38 µM

C#Cc1cc(/C=C2\SC(=S)NC2=O)ccc1O [compound 12, RD0562]
IC50 [2]: 23 µM | IC50 [7]: 23 µM

COc1ccc(/C=C2\SC(=S)NC2=O)cc1 [compound 13, RD1486]
IC50 [2]: 9.7 µM | IC50 [7]: 17 µM

COc1ccc(/C=C2\SC(=S)NC2=O)cc1/C=C/[Si](C)(C)C [dFINDY]
IC50 [9]: > 32 µM | IC50 [10]: 4.9 µM

COc1ccc(/C=C2\SC(=S)NC2=O)cc1/C=C/C1CCCCC1 [dscy-dFINDY]
IC50 [9]: > 32 µM | IC50 [10]: 4.1 µM

COc1ccc(/C=C2\SC(=S)NC2=O)cc1/C=C/C(C)(C)C [dstb-dFINDY]
IC50 [9]: > 32 µM | IC50 [11]: 7.4 µM | IC50 [10]: > 32 µM

COc1ccc(/C=C2\SC(=S)NC2=O)cc1C#C[Si](c1ccccc1)(c1ccccc1)c1ccccc1 [tp-FINDY]
IC50 [12]: > 32 µM | IC50 [11]: 5.8 µM

COc1ccc(/C=C2\SC(=S)NC2=O)cc1C#C[Si]([Si](C)(C)C)([Si](C)(C)C)[Si](C)(C)C [ts-FINDY]
IC50 [12]: > 32 µM | IC50 [11]: 4.6 µM
